Legend:
[1] = clinical; conditions: human, in vivo; for clearance: Plasma Clearance; for Vd: Vss
Protocol: All infusions were administered over 3 hours. Intensive plasma and urine PK sampling was obtained after dosing and assayed using validated HPLC/MS methods.

[2] = clinical; conditions: both, human, in vivo
Protocol: A total of twenty-five (n=25) male and female subjects who met the study entry criteria and completed all phases of the pharmacokinetic study were included in this pharmacokinetic analysis. […] Blood samples were collected to measure drug concentrations in plasma prior to (time 0), and at 1.5, 2.95, 3.083, 3.25, 3.5, 4, 6, and 8 hours after the start of a 3-hour intravenous infusion of the third combination dose.
Urea has been commonly used as an endogenous marker to estimate the apparent volume of ELF. Blood samples to determine plasma urea concentrations were obtained just prior to scheduled bronchoscopy. Aliquots of BAL were obtained to determine urea concentrations in BAL and cell count with differential. The standardized bronchoscopy with BAL procedure for the collection of intrapulmonary samples has been previously described in the references listed below.
(Reports MC14B-0013, MC14B-0015, MC14I-011, and MC14I-0012). The urea concentrations in plasma and BAL were performed with a microplate-based method with an 0-phthalaldehyde chromogenic solution at MicroConstants, Inc., San Diego, Calif.
The calculations of ELF volume and drug concentrations in ELF and AM were performed with BAL supernatant and pulmonary (alveolar) cells (“cell pellet”) from aspirates recovered from the 2nd, 3rd, and 4th instillations (BAL2). The concentration of drug (ABXELF) in the epithelial lining fluid (ELF) was determined as follows:
[…]
VELF is derived from the following:
where UreaBAL is the concentration of urea in BAL fluid and UreaP is the concentration of urea in plasma.
The concentration of drug (ABXAM) in the alveolar cells (AC) was determined as follows:
Differential cell count was performed to determine the number of macrophages present. A mean macrophage cell volume of 2.42 μl/106 cells was used in the calculations for volume of alveolar cells in the pellet suspension.
The concentration ratios of ELF and AM to the simultaneous plasma concentrations were calculated for each subject and summarized for each group at each sampling time. […] The 8-hour sampling time was also used as a value at time zero for determining the area term of plasma, ELF, and AM. The AUC0-8 for each matrix was determined with the linear trapezoidal method. The ratio of AUC0-8 of ELF to plasma and AM to plasma were calculated.

[3] = AM concentration at time of bronchoscopy and BAL
[4] = AUC0-8 based on mean ELF concentrations
[5] = AUC0-8 based on median ELF concentrations
[6] = ELF concentration at time of bronchoscopy and BAL
[7] = Plasma concentration at time of bronchoscopy and BAL
[8] = Ratio AM to Plasma (total plasma concentration)
[9] = Ratio ELF to Plasma (total plasma concentration)
[10] = intrapulmonary penetration based on AUC0-8 of ELF and total plasma concentrations
[11] = intrapulmonary penetration, unbound plasma concentrations
[12] = mean ratios of ELF to simultaneous plasma concentrations (range)
[13] = ratio of ELF to total plasma concentrations based on mean AUC0-8
[14] = ratio of ELF to total plasma concentrations based on median AUC0-8
[15] = ratio of ELF to unbound plasma concentrations based on mean AUC0-8
[16] = ratio of ELF to unbound plasma concentrations based on median AUC0-8
[17] = Ratio of ELF to total Plasma concentration

SMILES: O=C(O)C[C@@H]1CC[C@H](NC(=O)Cc2cccs2)B(O)O1 [Compound I]
- AUC(0-inf) ([1]; 250 mg): 17500 ng·h/mL
- Cmax ([1]; 250 mg, Cmax): 5200 ng/mL
- half-life ([1]; 250 mg): 70.8 min
- clearance ([1]; 250 mg): 245 mL/min
- Vd ([1]; 250 mg): 23.1 L
- AUC(0-inf) ([1]; 1000 mg): 77600 ng·h/mL
- Cmax ([1]; 1000 mg, Cmax): 22000 ng/mL
- half-life ([1]; 1000 mg): 93.6 min
- clearance ([1]; 1000 mg): 222 mL/min
- Vd ([1]; 1000 mg): 21.4 L
- AUC(0-inf) ([1]; 1500 mg): 124000 ng·h/mL
- Cmax ([1]; 1500 mg, Cmax): 37200 ng/mL
- half-life ([1]; 1500 mg): 72.6 min
- clearance ([1]; 1500 mg): 206 mL/min
- Vd ([1]; 1500 mg): 19.4 L
- concentration at 1.5 h [2, 3]: 2710 ± 1440 ng/mL
- concentration at 3.25 h [2, 3]: 8790 ± 9430 ng/mL
- concentration at 4 h [2, 3]: 5510 ± 3150 ng/mL
- concentration at 6 h [2, 3]: 27600 ± 39600 ng/mL
- concentration at 8 h [2, 3]: 4400 ± 4100 ng/mL
- AUC(0-t) [2, 4]: 105 µg·h/mL
- AUC(0-t) [2, 5]: 96.7 µg·h/mL
- concentration at 1.5 h [2, 6]: 18600 ± 3800 ng/mL
- concentration at 3.25 h [2, 6]: 26100 ± 1100 ng/mL
- concentration at 4 h [2, 6]: 15700 ± 3400 ng/mL
- concentration at 6 h [2, 6]: 8030 ± 5800 ng/mL
- concentration at 8 h [2, 6]: 2610 ± 1350 ng/mL
- concentration at 1.5 h [2, 7]: 42100 ± 5000 ng/mL
- concentration at 3.25 h [2, 7]: 51100 ± 6800 ng/mL
- concentration at 4 h [2, 7]: 28200 ± 5300 ng/mL
- concentration at 6 h [2, 7]: 10800 ± 2800 ng/mL
- concentration at 8 h [2, 7]: 2740 ± 1120 ng/mL
- Kp at 1.5 h [2, 8]: 0.062 ± 0.029
- Kp at 3.25 h [2, 8]: 0.165 ± 0.163
- Kp at 4 h [2, 8]: 0.191 ± 0.101
- Kp at 6 h [2, 8]: 2.58 ± 3.57
- Kp at 8 h [2, 8]: 1.6 ± 1.1
- Kp at 1.5 h [2, 9]: 0.45 ± 0.123
- Kp at 3.25 h [2, 9]: 0.508 ± 0.096
- Kp at 4 h [2, 9]: 0.57 ± 0.159
- Kp at 6 h [2, 9]: 0.705 ± 0.329
- Kp at 8 h [2, 9]: 1.01 ± 0.391
- Kp [2, 10]: ~0.53
- Kp [2, 11]: 0.79
- Kp at 6 h ([2]; mean ratio of AM to plasma concentration): 2.58 ± 3.57
- Kp ([2]; mean ratios of AM to simultaneous plasma concentration (range)): 0.062 to 2.58
- Kp [2, 12]: 0.45 to 1.01
- Kp [2, 13]: 0.53
- Kp [2, 14]: 0.48
- Kp [2, 15]: 0.79
- Kp [2, 16]: 0.72

SMILES: C[C@@H](O)[C@H]1C(=O)N2C(C(=O)O)=C(S[C@@H]3CN[C@H](C(=O)N(C)C)C3)[C@H](C)[C@H]12 [meropenem, Meropenem]
- AUC(0-∞) [1]: 130.34 mg·h/L
- Cmax [1]: 42540 ng/mL
- half-life [1]: 58.8 min
- clearance [1]: 334 mL/min
- Vd [1]: 25.9 L
- AUC(0-t) [2, 4]: 112 µg·h/mL
- AUC(0-t) [2, 5]: 102 µg·h/mL
- concentration at 1.5 h ([2]; Concentration in ELF): 21400 ± 4000 ng/mL
- concentration at 3.25 h ([2]; Concentration in ELF): 28300 ± 6700 ng/mL
- concentration at 4 h ([2]; Concentration in ELF): 16100 ± 4800 ng/mL
- concentration at 6 h ([2]; Concentration in ELF): 7520 ± 5290 ng/mL
- concentration at 8 h ([2]; Concentration in ELF): 2510 ± 1130 ng/mL
- concentration at 1.5 h ([2]; Concentration in Plasma): 41200 ± 5000 ng/mL
- concentration at 3.25 h ([2]; Concentration in Plasma): 47700 ± 7300 ng/mL
- concentration at 4 h ([2]; Concentration in Plasma): 23800 ± 4300 ng/mL
- concentration at 6 h ([2]; Concentration in Plasma): 7240 ± 2790 ng/mL
- concentration at 8 h ([2]; Concentration in Plasma): 1360 ± 510 ng/mL
- Kp at 1.5 h [2, 17]: 0.525 ± 0.107
- Kp at 3.25 h [2, 17]: 0.59 ± 0.079
- Kp at 4 h [2, 17]: 0.705 ± 0.302
- Kp at 6 h [2, 17]: 1.04 ± 0.475
- Kp at 8 h [2, 17]: 2.13 ± 1.37
- Kp [2, 10]: ~0.63
- Kp [2, 11]: 0.65
- Kp [2, 12]: 0.525 to 2.13
- Kp [2, 13]: 0.63
- Kp [2, 14]: 0.58
- Kp [2, 15]: 0.65
- Kp [2, 16]: 0.59
